Measurements: patent US10993983B2, “Cyclic peptide epitopes and small-molecule mimics for inducing autophagy” (TRUSTEES OF TUFTS COLLEGE, priority 2016, dated 2021)
Marks after values point to notes of the source that are not given here.

Experiments:
p62 = p62 degradation assay (p62/actin immunoblot);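 on Activity (μM) 10, p62/actin assay activity: HeLa cells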;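 on Activity (μM) 100, p62/actin assay activity: HeLa cells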;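 on Activity (μM) 30, p62/actin assay activity: HeLa cells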;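 on Activity (μM) 50, p62/actin assay activity: HeLa cells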; format: cell-based; parameters: key: −: activity not reported; 0: decreased vs. WT; +: similar to WT; ++: modest increase vs. WT; +++: significant increase vs. WT; conditions: first symbol; for Activity (μM) 10, p62/actin assay activity: 10 μM; for Activity (μM) 30, p62/actin assay activity: 30 μM; for Activity (μM) 50, p62/actin assay activity: 50 μM; for Activity (μM) 100, p62/actin assay activity: 100 μM
Procedure: (§1) Cells were treated with peptide in OPTI-MEM (Thermo Scientific) acidified with 0.15% (v/v) 6N HCl for 3 hour. Cells were rinsed with Dulbecco's phosphate buffered saline (PBS) and lysed in lysis buffer (20 mM HEPES, 150 mM NaCl, 1 mM EDTA, 1% Triton X-100, protease inhibitor cocktail (Roche) on ice for 1 hour. Cell lysates were centrifuged at 16,000 g for 10 min at 4° C. and analyzed by SDS-PAGE and transferred to PVDF membranes. The membranes were blocked 5% non-fat dry milk (NFDM) in PBST (PBS+0.05% Tween-20) for 1 hour, then incubated overnight at 4° C. with primary antibody in 5% NFDM in PBST. The blots were washed with PBST and incubated with HRP-conjugated secondary antibodies diluted in 5% NFDM in PBST for 1 hour at room temperature. Membranes were washed with PBST and visualized with SuperSignal West Pico Chemiluminescent Substrate (Thermo Scientific). Semi-quantitative results were obtained by noting the lowest concentration at which both p62 degradation and LC3-I to LC3-II conversion were observed.
(§2) Compounds 1-10 were evaluated using the assays described in Examples 4 and 5. Activity for each compound was measured in the p62 degradation assay and the LC3 marker assay as described herein. The activity at each concentration of peptide is given as, for example, (0/+) where 0 would be the p62/actin assay activity and + would be the LC3 assay activity.

LC3 = LC3 marker assay (LC3-I to LC3-II conversion immunoblot);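 on Activity (μM) 10, LC3 assay activity: HeLa cells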;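 on Activity (μM) 100, LC3 assay activity: HeLa cells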;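 on Activity (μM) 30, LC3 assay activity: HeLa cells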;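 on Activity (μM) 50, LC3 assay activity: HeLa cells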; format: cell-based; parameters: key: −: activity not reported; 0: decreased vs. WT; +: similar to WT; ++: modest increase vs. WT; +++: significant increase vs. WT; conditions: second symbol; for Activity (μM) 10, LC3 assay activity: 10 μM; for Activity (μM) 30, LC3 assay activity: 30 μM; for Activity (μM) 50, LC3 assay activity: 50 μM; for Activity (μM) 100, LC3 assay activity: 100 μM
Procedure: as §1, §2

[1] = Table 8, 10 μM marked * (footnote: data taken at 20 instead of 30 μM)
[2] = 5 μM, Table 8, control compound T25

| Sequence | Activity (μM) 10, p62/actin assay activity (p62; Table 6, control DMSO) | Activity (μM) 30, p62/actin assay activity (p62; Table 6, control DMSO) | Activity (μM) 50, p62/actin assay activity (p62; Table 6, control DMSO) | Activity (μM) 100, p62/actin assay activity (p62; Table 6, control DMSO) | Activity (μM) 10, LC3 assay activity (LC3; Table 6, control DMSO) | Activity (μM) 30, LC3 assay activity (LC3; Table 6, control DMSO) | Activity (μM) 50, LC3 assay activity (LC3; Table 6, control DMSO) | Activity (μM) 100, LC3 assay activity (LC3; Table 6, control DMSO) | Activity (μM) 30, p62/actin assay activity (p62; Table 7, control compound T25) | Activity (μM) 50, p62/actin assay activity (p62; Table 7, control compound T25) | Activity (μM) 100, p62/actin assay activity (p62; Table 7, control compound T25) | Activity (μM) 30, LC3 assay activity (LC3; Table 7, control compound T25) | Activity (μM) 50, LC3 assay activity (LC3; Table 7, control compound T25) | Activity (μM) 100, LC3 assay activity (LC3; Table 7, control compound T25) | other results |
| --- | --- | --- | --- | --- | --- | --- | --- | --- | --- | --- | --- | --- | --- | --- | --- |
| VCNATCHIWH [Compound 19] | + | ++ | ++ | +++ | 0 | 0 | + | + | – | – | – | – | – | – | – |
| VCNATCHIWH [Compound 20] | ++/++ | +++ | +++ | +++ | ++/++ | ++ | ++ | ++ | – | – | – | – | – | – | – |
| VCNATCHIWH [Compound 21] | ++ | +++ | +++ | +++ | 0 | 0 | 0 | 0 | – | – | – | – | – | – | – |
| VCNATCHIWH [Compound 22] | +++ | +++ | +++ | +++ | + | + | ++ | + | – | – | – | – | – | – | – |
| VCNATCHIWH [Compound 23] | + | ++/++ | +++ | +++ | 0 | ++/++ | ++ | ++ | – | – | – | – | – | – | – |
| VCNATCHIWH [Compound 24] | ++/++ | +++ | +++ | +++ | ++/++ | ++ | ++ | ++ | – | – | – | – | – | – | – |
| VCNATCHIWH [Compound 25] | ++/++ | ++/++ | +++/+++ | +++/+++ | ++/++ | ++/++ | +++/+++ | +++/+++ | – | – | – | – | – | – | – |
| VCNATCHIWH [Compound 26] | ++ | +++/+++ | +++/+++ | +++/+++ | +++ | +++/+++ | +++/+++ | +++/+++ | – | – | – | – | – | – | – |
| VCNATCHIWH [Compound 27] | – | – | – | – | – | – | – | – | 0/0 | 0/0 | 0/0 | 0/0 | 0/0 | 0/0 | – |
| VCNATCHIWH [Compound 28] | – | – | – | – | – | – | – | – | 0/0 | 0/0 | +++ | 0/0 | 0/0 | 0 | – |
| VCNATCHIWH [Compound 29] | – | – | – | – | – | – | – | – | 0/0 | + | ++ | 0/0 | 0 | 0 | – |
| VCNATCHIWH [Compound 30] | – | – | – | – | – | – | – | – | 0/0 | 0/0 | + | 0/0 | 0/0 | 0 | Activity (μM) 30, p62/actin assay activity (p62; Table 8, control compound T25): 0/0; Activity (μM) 50, p62/actin assay activity (p62; Table 8, control compound T25): 0/0; Activity (μM) 100, p62/actin assay activity (p62; Table 8, control compound T25): 0/0; Activity (μM) 10, starred cell, p62/actin assay activity (p62; [1]): 0/0*; Activity (μM) 30, LC3 assay activity (LC3; Table 8, control compound T25): 0/0; Activity (μM) 50, LC3 assay activity (LC3; Table 8, control compound T25): 0/0; Activity (μM) 100, LC3 assay activity (LC3; Table 8, control compound T25): 0/0; Activity (μM) 10, starred cell, LC3 assay activity (LC3; [1]): 0/0* |
| VCNATCHIWH [Compound 31] | – | – | – | – | – | – | – | – | 0/0 | 0/0 | 0/0 | 0/0 | 0/0 | 0/0 | – |
| VCNATCHIWH [Compound 32] | – | – | – | – | – | – | – | – | ++ | ++ | ++ | 0 | 0 | 0 | – |
| VCNATCHIWH [Compound 33] | – | – | – | – | – | – | – | – | – | – | – | – | – | – | Activity (μM) 5, p62/actin assay activity (p62; [2]): 0/0; Activity (μM) 10, p62/actin assay activity (p62; Table 8, control compound T25): 0; Activity (μM) 30, p62/actin assay activity (p62; Table 8, control compound T25): +++; Activity (μM) 50, p62/actin assay activity (p62; Table 8, control compound T25): +++/+++; Activity (μM) 100, p62/actin assay activity (p62; Table 8, control compound T25): +++/+++; Activity (μM) 5, LC3 assay activity (LC3; [2]): 0/0; Activity (μM) 10, LC3 assay activity (LC3; Table 8, control compound T25): +; Activity (μM) 30, LC3 assay activity (LC3; Table 8, control compound T25): ++; Activity (μM) 50, LC3 assay activity (LC3; Table 8, control compound T25): +++/+++; Activity (μM) 100, LC3 assay activity (LC3; Table 8, control compound T25): +++/+++ |
